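These data come from cells grown in 96-well plates and exposed to compound for 48 hours at five concentrations. At the GI50, growth is halved. At the TGI there is no net growth.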 Where a SMILES comes first, the peptide text is derived from it. [ ]: non-standard residue; d: D form.
Assays:
Assay in all cases: NCI anticancer screen, dose series, 48 h
[1] = system: SK-OV-3 ovarian
[2] = system: A549 NSCLC
[3] = system: SK-MEL-28 melanoma
[4] = system: SR leukemia
[5] = system: HT29 colon
[6] = system: ACHN renal
[7] = system: RXF 393 renal
[8] = system: OVCAR-8 ovarian
[9] = system: MCF7 breast
[10] = system: PC-3 prostate

| SMILES | GI50 [1] | TGI [1] | GI50 [2] | TGI [2] | GI50 [3] | TGI [3] | GI50 [4] | TGI [4] | GI50 [5] | TGI [5] | GI50 [6] | TGI [6] | GI50 [7] | TGI [7] | GI50 [8] | TGI [8] | TGI [9] | TGI [10] | GI50 [9] | GI50 [10] |
| --- | --- | --- | --- | --- | --- | --- | --- | --- | --- | --- | --- | --- | --- | --- | --- | --- | --- | --- | --- | --- |
| CC(=O)[O][Hg][c]1s[c]([Hg][O]C(C)=O)[c]([Hg][O]C(C)=O)[c]1[Hg][O]C(C)=O | 2.34 µM | 9.2 µM | 55.8 µM | > 100 µM | 1.18 µM | 5.52 µM | 2.27 µM | > 100 µM | 19.5 µM | > 100 µM | 19.3 µM | > 100 µM | 13.1 µM | 28.6 µM | 2.93 µM | > 100 µM |  |  |  |  |
| COc1ccc(/C=C2/CSC/C(=C/c3ccc(OC)c(OC)c3)C2=O)cc1OC |  | 42.6 µM |  | 8.39 µM |  | 9.76 µM |  |  |  | 2.7 µM |  | 5.58 µM |  | 8.62 µM |  | 2.19 µM | > 100 µM | 11.7 µM |  |  |
| Cc1nc(-n2nc(-c3ccccc3)cc2-c2ccccc2)sc1C(=O)CC(=O)C(=O)Nc1ccc(O)cc1 |  | > 100 µM |  | > 100 µM |  |  |  | > 100 µM |  | > 100 µM |  | > 100 µM |  | > 100 µM |  | > 100 µM |  |  |  |  |
| O=C(CCc1cc(-c2ccc(F)cc2)n[nH]1)N(Cc1ccccc1)Cc1ccccc1 |  | > 100 µM |  | > 100 µM |  | > 100 µM |  | 81.1 µM |  | > 100 µM |  | > 100 µM |  | > 100 µM |  | > 100 µM |  |  |  |  |
| N#C/C(=C1\OC(N)=C(c2ccc(Cl)cc2)C1=O)c1ccc(Cl)cc1 |  | 89.1 µM |  | 50.9 µM |  | 67.7 µM |  | 54.7 µM |  | 39.5 µM |  | 33.1 µM |  | 25.4 µM |  | 26.3 µM |  |  |  |  |
| CC1=CC(=O)N2C(OC[C@@H]2c2ccccc2)O1 (stereo partly drawn) |  | > 100 µM |  | > 100 µM |  | > 100 µM |  | > 100 µM |  | > 100 µM |  | > 100 µM |  | > 100 µM |  | > 100 µM |  |  |  |  |
| N#Cc1cc2c(cc1Cl)SC(=Nc1ccccc1)N(S(=O)(=O)c1ccc(Br)s1)S2(=O)=O | 39.6 µM | > 100 µM | 24.7 µM | 66.6 µM | 19.5 µM | 44.1 µM |  |  | 32.3 µM | > 100 µM | 19.7 µM | 37.3 µM | 15.1 µM | 45.1 µM | 18.9 µM | 47.9 µM | 39.5 µM | 37.3 µM | 13.6 µM | 17.8 µM |
| N#CC(C#N)C(c1ccccc1)c1ccccc1 |  | > 100 µM |  | > 100 µM |  | > 100 µM |  | > 100 µM |  |  |  | > 100 µM |  | > 100 µM |  | > 100 µM |  |  |  |  |
| O=C1C(=Cc2ccc(F)cc2)C(=O)c2ccccc21 |  | > 100 µM |  | > 100 µM |  | > 100 µM |  |  |  | > 100 µM |  | > 100 µM |  |  |  | > 100 µM |  |  |  |  |
| O/N=C1\C(=C\c2ccc3c(c2)OCCO3)CCCC1C(NO)c1ccc2c(c1)OCCO2 (stereo not drawn) |  | > 100 µM |  | > 100 µM |  | 32.5 µM |  | 55.5 µM |  | 32.3 µM |  | > 100 µM |  | 59.3 µM |  | > 100 µM |  |  |  |  |
| CC/C(C)=C1\CCC(CN(C)C)C1=O (stereo not drawn) |  |  |  | 49.2 µM |  | 38.6 µM |  | 43.2 µM |  | 46.5 µM |  | 33.2 µM |  | 40.4 µM |  | 76.1 µM |  |  |  |  |
| CC1=C2C3OC(=O)C(C)C3C(O)C[C@@]2(C)C(=O)CC1 (stereo partly drawn) |  | > 100 µM |  | > 100 µM |  | > 100 µM |  | > 100 µM |  | > 100 µM |  | > 100 µM |  | > 100 µM |  | > 100 µM |  |  |  |  |
| CCCCCC/C(CC(=O)CCC(=O)NCCc1ccccc1)=N\Nc1ccc([N+](=O)[O-])cc1[N+](=O)[O-] |  | > 100 µM |  | > 100 µM |  | > 100 µM |  | 67.7 µM |  | > 100 µM |  | > 100 µM |  | > 100 µM |  | > 100 µM |  |  |  |  |
| NC1=Nc2ccccc2Sc2ccccc21 |  | > 100 µM |  | > 100 µM |  | > 100 µM |  | > 100 µM |  | > 100 µM |  | > 100 µM |  | > 100 µM |  | > 100 µM |  |  |  |  |
| CC[C@@H](C(=O)[C@@H](C)[C@@H](O)[C@H](C)[C@@H]1O[C@@H]([C@@H](CC)C(=O)O)CC[C@@H]1C)[C@H]1O[C@]2(C=C[C@@H](O)[C@]3(CC[C@@](C)([C@H]4CC[C@](O)(CC)[C@H](C)O4)O3)O2)[C@H](C)C[C@@H]1C | 3.6 µM | 48 µM | 0.421 µM | 14.1 µM | 1.14 µM | 2.38 µM |  |  | 0.331 µM | 15 µM | 1.39 µM | 49.2 µM | 0.114 µM | 2.64 µM | 1.2 µM | 29.5 µM | 13.1 µM | 32.6 µM | 0.315 µM | 0.084 µM |
| N#CNC1=NCCC(=O)N1CCc1c[nH]c2ccccc12 |  | > 100 µM |  | > 100 µM |  | > 100 µM |  | > 100 µM |  | > 100 µM |  |  |  | > 100 µM |  | > 100 µM |  |  |  |  |
| Cc1c(C2CCSc3ccccc3N2)sc2ccccc12 (stereo not drawn) |  | > 100 µM |  | > 100 µM |  | > 100 µM |  |  |  | > 100 µM |  | > 100 µM |  | > 100 µM |  | > 100 µM | > 100 µM | > 100 µM |  |  |
| CSCC[C@H](NC(=O)[C@@H](N)CC(N)=O)C(=O)N[C@@H](Cc1c[nH]c2ccccc12)C(=O)N[C@@H](CCC(N)=O)C(=O)N[C@@H](CCC(=O)O)C(=O)N[C@H](C(=O)NCC(=O)N[C@@H](CCCCN)C(=O)N[C@H](C)C(=O)O)C(C)C (H-NMWQEVGK[dA]-OH) |  | > 100 µM |  | > 100 µM |  | > 100 µM |  |  |  | > 100 µM |  | > 100 µM |  | > 100 µM |  | > 100 µM | > 100 µM | > 100 µM |  |  |
| Cc1cn2cc(-c3ccc4c(c3)CC(=O)N4)nc2s1 | > 100 µM | > 100 µM | > 100 µM | > 100 µM | > 100 µM | > 100 µM |  |  | 85.5 µM | > 100 µM | 49.7 µM | > 100 µM | > 100 µM | > 100 µM | > 100 µM | > 100 µM |  | > 100 µM |  | > 100 µM |
| C=C(CN1CCN(c2ccc(F)c(Cl)c2)CC1)c1ccc(C(=O)Nc2ccccc2N)cc1 | > 100 µM | > 100 µM | 3.81 µM | 24.5 µM | 0.529 µM | > 100 µM |  |  | 2.32 µM | > 100 µM | 6.43 µM | > 100 µM | 3.84 µM | 39.2 µM | 5.42 µM | > 100 µM | > 100 µM | 9.23 µM | 5.17 µM | 2.34 µM |
